Laboratory results published in US9657002B2, “Oxindole derivatives carrying an oxetane substituent and use thereof for treating vassopressin-related diseases” (AbbVie Deutschland GmbH & Co. KG, priority 2013, dated 2017).
Read-outs that look alike come from different tables or passages of the source.

Legend:
[1] = target: human vasopressin V1a receptor (Homo sapiens, UniProt P37288); experiment: Vasopressin V1a receptor binding assay; settings: selectivity quotient, human V1a vs human V1b
[2] = target: T1, human vasopressin V1b receptor (Homo sapiens, UniProt P47901); experiment: biochemical
T1 sequence (P47901 1-424): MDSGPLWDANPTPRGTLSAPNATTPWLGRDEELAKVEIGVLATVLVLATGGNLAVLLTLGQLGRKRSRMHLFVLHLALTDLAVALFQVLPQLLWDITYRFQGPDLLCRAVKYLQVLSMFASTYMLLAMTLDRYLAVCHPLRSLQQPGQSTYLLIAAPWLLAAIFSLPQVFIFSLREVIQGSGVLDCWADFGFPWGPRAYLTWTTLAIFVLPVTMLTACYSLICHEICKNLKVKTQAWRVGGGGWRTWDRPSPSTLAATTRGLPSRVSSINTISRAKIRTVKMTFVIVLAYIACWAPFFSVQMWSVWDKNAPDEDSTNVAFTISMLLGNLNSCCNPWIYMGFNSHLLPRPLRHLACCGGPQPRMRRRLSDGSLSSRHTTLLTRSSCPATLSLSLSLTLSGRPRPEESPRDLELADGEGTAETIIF

[3] = target: T1, human vasopressin V1b receptor; settings: read-out: Ki(h-V1b)*, CHO-K1 membranes, 3H-AVP displacement

Sequence of human vasopressin V1a receptor (P37288 whole entry): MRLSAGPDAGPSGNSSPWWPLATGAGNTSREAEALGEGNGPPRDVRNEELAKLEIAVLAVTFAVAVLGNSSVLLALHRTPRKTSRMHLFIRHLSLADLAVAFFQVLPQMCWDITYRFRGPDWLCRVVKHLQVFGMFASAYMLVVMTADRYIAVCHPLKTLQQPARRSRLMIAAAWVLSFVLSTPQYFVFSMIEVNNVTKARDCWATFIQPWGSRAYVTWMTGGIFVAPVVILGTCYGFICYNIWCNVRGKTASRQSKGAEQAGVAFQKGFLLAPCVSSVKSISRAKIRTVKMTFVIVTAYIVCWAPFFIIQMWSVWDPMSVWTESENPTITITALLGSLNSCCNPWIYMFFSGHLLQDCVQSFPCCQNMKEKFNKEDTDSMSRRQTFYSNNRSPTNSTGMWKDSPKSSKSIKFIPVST

Row | SMILES | Ki(h-V1a)/Ki(h-V1b) [1] | Ki [2] | Ki [3]
1 | COc1ccc(S(=O)(=O)N2C(=O)[C@@](NC(=O)N3CCC(N4CCN(C5COC5)CC4)CC3)(c3cccnc3OC)c3cc(C#N)ccc32)c(OC)c1 [Example 31, N-[(3S)-5-cyano-1-(2,4-dimethoxyphenyl)sulfonyl-3-(2-methoxy-3-pyridyl)-2-oxo-indolin-3-yl]-4-[4-(oxetan-3-yl)piperazin-1-yl]piperidine-1-carboxamide] | +++ (>75) | 10 to 100 nM | 
2 | CCOc1ccc(OC)cc1[C@]1(NC(=O)N2CCN(C3CCN(C4COC4)CC3)CC2)C(=O)N(S(=O)(=O)c2ccc(OC)cn2)c2ccc(C#N)cc21 [Example 32, N-[(3S)-5-cyano-3-(2-ethoxy-5-methoxy-phenyl)-1-[(5-methoxy-2-pyridyl)sulfonyl]-2-oxo-indolin-3-yl]-4-[1-(oxetan-3-yl)-4-piperidyl]piperazine-1-carboxamide] | +++ (>75) | 10 to 100 nM | 
3 | CCOc1ccc(OC)cc1[C@]1(NC(=O)N2CCN(C3CCN(C4COC4)CC3)CC2)C(=O)N(S(=O)(=O)c2ccc(OC)cc2OC)c2ccc(C#N)cc21 [Example 33, N-[(3S)-5-cyano-1-(2,4-dimethoxyphenyl)sulfonyl-3-(2-ethoxy-5-methoxy-phenyl)-2-oxo-indolin-3-yl]-4-[1-(oxetan-3-yl)-4-piperidyl]piperazine-1-carboxamide] | +++ (>75) | 1 to 10 nM | 
4 | COc1ccc(S(=O)(=O)N2C(=O)[C@@](NC(=O)N3CCN(C4CCN(C5COC5)CC4)CC3)(c3cccnc3OC)c3cc(C#N)ccc32)cc1 [Example 34, N-[(3S)-5-cyano-1-(4-methoxyphenyl)sulfonyl-3-(2-methoxy-3-pyridyl)-2-oxo-indolin-3-yl]-4-[1-(oxetan-3-yl)-4-piperidyl]piperazine-1-carboxamide] | ++ (25-75) | 10 to 100 nM | 
5 | CCOc1ccc(OC)cc1[C@]1(NC(=O)N2CCN(C3CCN(C4COC4)CC3)CC2)C(=O)N(S(=O)(=O)c2ccc(F)cc2OC)c2ccc(C#N)cc21 [Example 35, N-[(3S)-5-cyano-3-(2-ethoxy-5-methoxy-phenyl)-1-(4-fluoro-2-methoxy-phenyl)sulfonyl-2-oxo-indolin-3-yl]-4-[1-(oxetan-3-yl)-4-piperidyl]piperazine-1-carboxamide] | +++ (>75) | 1 to 10 nM | 
6 | COc1ccc(S(=O)(=O)N2C(=O)[C@@](NC(=O)N3CCC(C4CCN(C5COC5)CC4)CC3)(c3cccnc3OC)c3cc(C#N)ccc32)cc1 [Example 36, N-[(3S)-5-cyano-1-(4-methoxyphenyl)sulfonyl-3-(2-methoxy-3-pyridyl)-2-oxo-indolin-3-yl]-4-[1-(oxetan-3-yl)-4-piperidyl]piperidine-1-carboxamide] | +++ (>75) | 1 to 10 nM | 
7 | COc1cc(F)ccc1S(=O)(=O)N1C(=O)[C@@](NC(=O)N2CCC(C3CCN(C4COC4)CC3)CC2)(c2cccnc2OC)c2cc(C#N)ccc21 [Example 37, N-[(3S)-5-cyano-1-(4-fluoro-2-methoxy-phenyl)sulfonyl-3-(2-methoxy-3-pyridyl)-2-oxo-indolin-3-yl]-4-[1-(oxetan-3-yl)-4-piperidyl]piperidine-1-carboxamide] | +++ (>75) | < 1 nM | 
8 | CCOc1ncccc1[C@]1(NC(=O)N2CC3CC2CN3C2CCN(C3COC3)CC2)C(=O)N(S(=O)(=O)c2ccc(OC)cc2OC)c2ccc(C#N)cc21 (stereo partly drawn) [Example 38, N-[(3S)-5-cyano-1-(2,4-dimethoxyphenyl)sulfonyl-3-(2-ethoxy-3-pyridyl)-2-oxo-indolin-3-yl]-5-[1-(oxetan-3-yl)-4-piperidyl]-2,5-diazabicyclo[2.2.1]heptane-2-carboxamide] | +++ (>75) | 10 to 100 nM | 
9 | COc1ncccc1[C@]1(NC(=O)N2CCC(C3CCN(C4COC4)CC3)CC2)C(=O)N(S(=O)(=O)c2ccc(F)cc2)c2ccc(C#N)cc21 [Example 40, N-[(3S)-5-cyano-1-(4-fluorophenyl)sulfonyl-3-(2-methoxy-3-pyridyl)-2-oxo-indolin-3-yl]-4-[1-(oxetan-3-yl)-4-piperidyl]piperidine-1-carboxamide] | + (10-<25) | 1 to 10 nM | 
10 | COc1ncccc1[C@]1(NC(=O)N2CCN(C3CCN(C4COC4)CC3)CC2)C(=O)N(S(=O)(=O)c2ccc(C#N)cc2)c2ccc(C#N)cc21 [Example 43, N-[(3S)-5-cyano-1-(4-cyanophenyl)sulfonyl-3-(2-methoxy-3-pyridyl)-2-oxo-indolin-3-yl]-4-[1-(oxetan-3-yl)-4-piperidyl]piperazine-1-carboxamide] | + (10-<25) | 10 to 100 nM | 
11 | COc1ccc(S(=O)(=O)N2C(=O)[C@@](NC(=O)N3CCN(C4CCN(C5COC5)CC4)CC3)(c3cccnc3OC(C)C)c3cc(C#N)ccc32)c(OC)c1 [Example 44, N-[(3S)-5-cyano-1-(2,4-dimethoxyphenyl)sulfonyl-3-(2-isopropoxy-3-pyridyl)-2-oxo-indolin-3-yl]-4-[1-(oxetan-3-yl)-4-piperidyl]piperazine-1-carboxamide] | +++ (>75) | 1 to 10 nM | 
12 | COc1cc(C)ccc1S(=O)(=O)N1C(=O)[C@@](NC(=O)N2CCN(C3CCN(C4COC4)CC3)CC2)(c2cccnc2OC)c2cc(C#N)ccc21 [Example 46, N-[(3S)-5-cyano-1-(2-methoxy-4-methyl-phenyl)sulfonyl-3-(2-methoxy-3-pyridyl)-2-oxo-indolin-3-yl]-4-[1-(oxetan-3-yl)-4-piperidyl]piperazine-1-carboxamide] | +++ (>75) | 10 to 100 nM | 
13 | COc1ncccc1[C@]1(NC(=O)N2CCN(C3CCN(C4COC4)CC3)CC2)C(=O)N(S(=O)(=O)c2ccc(C#N)cc2F)c2ccc(C#N)cc21 [Example 47, N-[(3S)-5-cyano-1-(4-cyano-2-fluoro-phenyl)sulfonyl-3-(2-methoxy-3-pyridyl)-2-oxo-indolin-3-yl]-4-[1-(oxetan-3-yl)-4-piperidyl]piperazine-1-carboxamide] | ++ (25-75) | 10 to 100 nM | 
14 | COc1ccccc1S(=O)(=O)N1C(=O)[C@@](NC(=O)N2CCC(C3CCN(C4COC4)CC3)CC2)(c2cccnc2OC)c2cc(C#N)ccc21 [Example 49, (S)—N-(5-cyano-1-((2-methoxyphenyl)sulfonyl)-3-(2-methoxypyridin-3-yl)-2-oxoindolin-3-yl)-1′-(oxetan-3-yl)-[4,4′-bipiperidine]-1-carboxamide] | +++ (>75) | 1 to 10 nM | 
15 | COc1ncccc1[C@]1(NC(=O)N2CCC(C3CCN(C4COC4)CC3)CC2)C(=O)N(S(=O)(=O)c2ccccc2)c2ccc(C#N)cc21 [Example 50, (S)—N-(5-cyano-3-(2-methoxypyridin-3-yl)-2-oxo-1-(phenylsulfonyl)indolin-3-yl)-1′-(oxetan-3-yl)-[4,4′-bipiperidine]-1-carboxamide] | ++ (25-75) | 10 to 100 nM | 
16 | CCOc1ncccc1[C@]1(NC(=O)N2CCN(C3CCN(C4(C)COC4)CC3)CC2)C(=O)N(S(=O)(=O)c2ccc(OC)cc2OC)c2ccc(C#N)cc21 [Example 51, (S)—N-(5-cyano-1-((2,4-dimethoxyphenyl)sulfonyl)-3-(2-ethoxypyridin-3-yl)-2-oxoindolin-3-yl)-4-(1-(3-methyloxetan-3-yl)piperidin-4-yl)piperazine-1-carboxamide] | +++ (>75) | 1 to 10 nM | 
17 | COc1ccc(S(=O)(=O)N2C(=O)[C@@](NC(=O)N3CCN(C4CCN(C5(C)COC5)CC4)CC3)(c3cccnc3OC)c3cc(C#N)ccc32)c(OC)c1.O=C(O)C(F)(F)F.O=C(O)C(F)(F)F [Example 52, (S)—N-(5-cyano-1-((2,4-dimethoxyphenyl)sulfonyl)-3-(2-methoxypyridin-3-yl)-2-oxoindolin-3-yl)-4-(1-(3-methyloxetan-3-yl)piperidin-4-yl)piperazine-1-carboxamide, 2 trifluoroacetic acid] | +++ (>75) |  | 1 to 10 nM
18 | COc1ccc(S(=O)(=O)N2C(=O)[C@@](NC(=O)N3CCN(C4CCN(C5COC5C)CC4)CC3)(c3cccnc3OC)c3cc(C#N)ccc32)c(OC)c1.O=C(O)C(F)(F)F.O=C(O)C(F)(F)F (stereo partly drawn) [Example 53, N—((S)-5-cyano-1-((2,4-dimethoxyphenyl)sulfonyl)-3-(2-methoxypyridin-3-yl)-2-oxoindolin-3-yl)-4-(1-(2-methyloxetan-3-yl)piperidin-4-yl)piperazine-1-carboxamide, 2 trifluoroacetic acid] | ++ (25-75) |  | 1 to 10 nM
19 | COc1ccc(S(=O)(=O)N2C(=O)[C@@](NC(=O)N3CCN(C4CCN(C5COC5)CC4)CC3)(c3cc(OC)ccc3OC)c3cc(C#N)ccc32)c(OC)c1 [Example 54, (S)—N-(5-cyano-3-(2,5-dimethoxyphenyl)-1-((2,4-dimethoxyphenyl)sulfonyl)-2-oxoindolin-3-yl)-4-(1-(oxetan-3-yl)piperidin-4-yl)piperazine-1-carboxamide] | ++ (25-75) | < 1 nM | 
20 | COc1ccc(S(=O)(=O)N2C(=O)[C@@](NC(=O)N3CCC(C4CCN(C5COC5)CC4)CC3)(c3cc(OC)ccc3OC)c3cc(C#N)ccc32)c(OC)c1 [Example 55, (S)—N-(5-cyano-3-(2,5-dimethoxyphenyl)-1-((2,4-dimethoxyphenyl)sulfonyl)-2-oxoindolin-3-yl)-1′-(oxetan-3-yl)-[4,4′-bipiperidine]-1-carboxamide] | + (10-<25) | < 1 nM | 
